Experimental data reported in ChEMBL document CHEMBL3045114, “SAR studies of sesquiterpene lactones as Orobanche cumana seed germination stimulants” (2002).
Active and inactive are the calls of the source. No cut-off for these calls is given here.

How the values were obtained:
Type in all cases: functional
[1] = tested on: Orobanche cernua var. cumana; assay: Induction of Orobanche cernua var. cumana seed germination at 10 uM after 6 days
Orobanche minor = assay: Induction of Orobanche minor seed germination at 0.001 uM after 6 days
[2] = tested on: Orobanche cernua var. cumana; assay: Induction of Orobanche cernua var. cumana seed germination at 100 uM after 6 days
Phelipanche ramosa = assay: Induction of Orobanche ramosa seed germination at 100 uM after 6 days
Orobanche crenata [3] = assay: Induction of Orobanche crenata seed germination at 100 uM after 6 days
Orobanche crenata [4] = assay: Induction of Orobanche crenata seed germination after 6 days

| Structure (SMILES) | Activity [1] | further results |
| --- | --- | --- |
| C=C1[C@@H]2[C@H]3OC(=O)C(=C)[C@@H]3CCC(=C)[C@@H]2C[C@H]1O [ISOZALUZANIN C] | >40% |  |
| C=C1C(=O)O[C@@H]2/C=C(\C)CC[C@H]3O[C@]3(C)CC[C@@H]12 [1,10-EPOXYCOSTUNOLIDE] | >40% |  |
| CC1=C[C@@H](O/C=C2/C(=O)O[C@H]3C=CC[C@@H]23)OC1=O | 0% |  |
| C=C1CC[C@H]2[C@H](CO)C(=O)O[C@@H]2C2C(=C)CCC12 (stereo partly specified) | >40% |  |
| CC1=C[C@H](O/C=C2/C(=O)O[C@@H]3C4=C(CCCC4(C)C)[C@@H](O)[C@H]23)OC1=O [OROBANCHOL] |  | Activity (Orobanche minor): >40% |
| COC(=O)/C(=C/O[C@H]1C=C(C)C(=O)O1)N1C(=O)c2ccccc2C1=O [NIJMEGEN-1] |  | Activity (Orobanche minor): 0% |
| C=C1C(=O)O[C@@H]2/C=C(\C)CC/C=C(/CO)CC[C@@H]12 | 0% |  |
| CC1=C[C@H](O/C=C2/C(=O)O[C@@H]3C4=C(C[C@H]23)[C@@H](O)CCC4(C)C)OC1=O [STRIGOL] |  | Activity (Orobanche minor): >40% |
| C=C1C(=O)O[C@H]2[C@H]1CCC(=C)[C@]1(O)C[C@@H](O)C(=C)[C@]21O | 0% |  |
| C=C1C(=O)O[C@@H]2C3O[C@]3(C)CC/C=C(\C)CC[C@@H]12 (stereo partly specified) | >40% |  |
| CC1=C[C@H](O/C=C2/C(=O)O[C@@H]3c4ccccc4C[C@H]23)OC1=O | 65% | Activity [2]: 50%; Activity (Phelipanche ramosa): 65%; Activity (Orobanche crenata [3]): 80% |
| CC1=C[C@H](O/C=C2/C(=O)O[C@@H]3C4=C(CCC[C@@H]4C)C[C@H]23)OC1=O [SORGOLACTONE] |  | Activity (Orobanche crenata [4]): >40% |
| C=C1C2[C@H]3OC(=O)C(=C)[C@@H]3CC[C@@]2(C)[C@H](O)C[C@H]1O (stereo partly specified) | inactive |  |
| C=C1CC[C@@H](O)[C@]2(C)CC[C@H]3C(=C)C(=O)O[C@@H]3[C@@H]12 [REYNOSIN] | 0% |  |
| C=C1C(=O)O[C@H]2[C@H]1CC[C@@]1(C)[C@H](O)CC=C(C)[C@]21O | inactive |  |
| CC1=CC(O/C=C2/C(=O)OC3C2C=C2CCCC(C)(C)C23O)OC1=O (stereo unspecified) [ALECTROL] |  | Activity (Orobanche minor): >40% |
| C=C1CC[C@H]2[C@H](CO)C(=O)O[C@@H]2C2C(=C)[C@H](O)CC12 (stereo partly specified) | >40% |  |
| C/C1=C\CC[C@@]2(C)O[C@@H]2[C@H]2OC(=O)[C@](C)(O)[C@@H]2CC1 | 0% |  |
